# “Also recorded” adds a separate entry of the source.
# Columns and labels:
# neoplastic cells = settings: cell sample incubated 6-24 hours with 200 μg/ml TCPP; cited from earlier work
# [1] = system: cells of lung sputum sample; assay: Fluorescence spectral imaging (LCTF/CCD) of TCPP-labeled lung sputum cells on slides; type: cell-based, human; settings: fixed sputum cells on slide, images separated by spectral emission (530 nm vs 660 nm layers)
# Description: According to one embodiment of the present invention, a biological specimen, for example a sputum sample is processed using a thin prep protocol onto a microscope slide. […] Minimizing corrosive effects to the plasma membrane is important as the TCPP is shown to localize on the plasma membrane of the cell surface. The cells are processed to separate the cells from the mucous and cell fragments. Each prepared slide contains a monolayer of the sputum cells. After preparing the slides, the labeling reagent TCPP is dissolved in concentrations between 0.05 ug/ml-4.0 ug/ml in an aqueous alcohol containing between 50% and 90% isopropanol alcohol solution. […]
# To gather our data an image capture system having a detector capable of quantifying emission of photons from a TCPP labeled cell across light spectrum from about 350 nm to about 800 nm was employed according to one embodiment of the present invention. […]
# Referring now to FIG. 1 is a cell labeled or stained with TCPP according to one embodiment of the present invention. […] The autofluorescence of the cells is detected in the green channel 560 +/−30nm and the fluorescence of the TCPP labeling compound on the cell is detected in the red channel 660 +/−30 nm. […] By tuning the LCTF to different frequencies during imaging, the system permits information to be gathered and analyzed over a broad spectrum. […]
structure (smiles),measurement,setting,value
"O=C(O)c1ccc(-c2c3nc(c(-c4ccc(C(=O)O)cc4)c4ccc([nH]4)c(-c4ccc(C(=O)O)cc4)c4nc(c(-c5ccc(C(=O)O)cc5)c5ccc2[nH]5)C=C4)C=C3)cc1 [TCPP, 5, 10, 15, 20 tetrakis (4-carboxyphenyl) porphine]",location of TCPP in cells after incubation,neoplastic cells,entered cells and bound to the perinuclear membrane and mitochondria of neoplastic cells
same,location of TCPP in cell structures,[1],emitted exclusively from the plasma membrane; also recorded: adheres only to surface features and does not migrate into internal cell structures
